In patent US20100112048A1, “Dosage Regimen and Medicament For Reducing Risk of Onset or Progression of Dementia by Administration of Specific Vitamins and Nsaid” (priority 2006, published 2010):

How the values were obtained:
[1] = test system: mortality of elderly Cache County participants; settings: in vivo
Method: Also, to examine the effect of these constituents on differential mortality, logistic regression was used to estimate the relative risk of mortality over the course of follow-up among the 5 user groups. These analyses, were controlled for age, sex, education, and APOE genotype status. All analyses were performed using SAS statistical software package version 8.0.
Also, an analysis was effected to assess whether there was an increased risk of mortality among any of the user groups that might potentially bias the observed associations with cognitive performance over time.

mortality of the elderly = settings: placebo-controlled trial in the elderly; cited from earlier work
[2] = test system: mortality of 39,876 healthy participants; settings: cited from earlier work

vitamin E
harm of vitamin E, subgroup analysis (in words) [1]: may only be harmful among elderly with prior cardiovascular disease
mortality associated with using vitamin E (in words) (mortality of the elderly): did not note any increased mortality
cardiovascular mortality (in words) ([2]; healthy women): trend toward decreased cardiovascular mortality
mortality vs placebo (in words) ([2]; monitored for over 10 years): no significant difference in mortality
